Data on 20 compounds can be found in patent publication US11434242B2, “Dopamine-b-hydroxylase inhibitors” (BIAL-PORTELA & Cª, S.A., priority 2017, dated 2022).

The experiment concerns the target T1, Dopamine beta hydroxylase (Homo sapiens, UniProt P09172).
T1 construct: 125 μl of plasma; tissue Instituto Português do Sangue Transplantação; host or cells: human plasma from healthy donors
T1 sequence (P09172 40-617 limits assumed): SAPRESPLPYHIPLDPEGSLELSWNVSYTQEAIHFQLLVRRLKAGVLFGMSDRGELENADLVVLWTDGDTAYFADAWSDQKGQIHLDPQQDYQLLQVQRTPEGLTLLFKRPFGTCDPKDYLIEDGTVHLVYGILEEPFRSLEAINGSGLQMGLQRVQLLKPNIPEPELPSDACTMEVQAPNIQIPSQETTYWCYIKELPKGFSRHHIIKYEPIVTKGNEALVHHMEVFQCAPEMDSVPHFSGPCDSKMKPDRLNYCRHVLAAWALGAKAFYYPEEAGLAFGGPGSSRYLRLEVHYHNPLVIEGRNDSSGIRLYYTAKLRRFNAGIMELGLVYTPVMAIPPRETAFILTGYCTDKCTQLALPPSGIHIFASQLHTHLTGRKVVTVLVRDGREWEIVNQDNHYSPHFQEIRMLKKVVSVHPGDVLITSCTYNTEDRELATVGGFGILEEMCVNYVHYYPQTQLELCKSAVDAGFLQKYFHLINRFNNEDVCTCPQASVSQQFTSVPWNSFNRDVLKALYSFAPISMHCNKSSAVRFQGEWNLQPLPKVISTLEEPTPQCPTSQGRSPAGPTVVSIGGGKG
The experiment in a line: Dopamine beta hydroxylase activity in human plasma. To be noted: for Plasma (0.01 μM), activity in % of control: inhibitor 0.01 μM; for Plasma (0.1 μM), activity in % of control: inhibitor 0.1 μM. It counts as biochemical. The method in brief: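 Octopamine production from tyramine over 45 min at 37° C, measured photometrically at 330 nm after SCX extraction and periodate oxidation against an octopamine standard curve, indicates plasma DβH activity. Compounds tested at final 10, 100 and 1000 nM in human plasma, pH 5.0 cofactor buffer, 10 min preincubation; results as % of control.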

Regarding `Cn1c(CC(=O)O)c2n(c1=S)C[C@@]1(c3cc(Cl)ccc3F)C[C@@H]21` [Example 276, 2-((5aS,6aR)-5a-(5-chloro-2-fluorophenyl)-2-methyl-3-thioxo-2,3,5,5a,6,6a-hexahydrocyclopropa[3,4]pyrrolo[1,2-c]imidazol-1-yl)acetic Acid], the “Plasma (0.01 μM), activity in % of control” value is given as 83.3 % of control and the “Plasma (0.1 μM), activity in % of control” value was 33.3 % of control.
For the compound `O=C(Cc1[nH]c(=S)n2c1[C@@H]1C[C@]1(c1cc(Br)ccc1F)C2)Nc1ccccn1` [Example 170, 2-((5aS,6aR)-5a-(5-bromo-2-fluorophenyl)-3-thioxo-2,3,5,5a,6,6a-hexahydrocyclopropa[3,4]pyrrolo[1,2-c]imidazol-1-yl)-N-(pyridin-2-yl)acetamide], the “Plasma (0.01 μM), activity in % of control” value is on record as 64.9 % of control and the “Plasma (0.1 μM), activity in % of control” value is recorded as 2.0 % of control.
On the same counts, the results for `CN(C(=O)Cc1[nH]c(=S)n2c1[C@@H]1C[C@]1(c1cc(Br)ccc1F)C2)C1CCCC1` [Example 155, 2-((5aS,6aR)-5a-(5-bromo-2-fluorophenyl)-3-thioxo-2,3,5,5a,6,6a-hexahydrocyclopropa[3,4]pyrrolo[1,2-c]imidazol-1-yl)-N-cyclopentyl-N-methylacetamide] are 91.5 % of control and 19.7 % of control.
For `Fc1ccc(Br)c(F)c1[C@H]1Cc2c(CCc3cccnc3)[nH]c(=S)n2C1` [Example 214, (R)-6-(3-bromo-2,6-difluorophenyl)-1-(2-(pyridin-3-yl)ethyl)-2,5,6,7-tetrahydro-3H-pyrrolo[1,2-c]imidazole-3-thione], in that order: 109.1 % of control and 72.1 % of control.
On the same counts, the results for `CN1CCC(NC(=O)Cc2c3n(c(=S)n2C)C[C@@H](c2c(F)ccc(F)c2F)C3)C1=O` (stereo partly drawn) [Example 388, N-(1-methyl-2-oxopyrrolidin-3-yl)-2-((R)-2-methyl-3-thioxo-6-(2,3,6-trifluorophenyl)-2,5,6,7-tetrahydro-3H-pyrrolo[1,2-c]imidazol-1-yl)acetamide] are 80.8 % of control and 71.1 % of control.
Turning to `[2H]C([2H])([2H])n1c(CC(=O)O)c2n(c1=S)C[C@@]1(c3cc(Br)ccc3F)C[C@@H]21` [Example 462, 2-((5aS,6aR)-5a-(5-bromo-2-fluorophenyl)-2-(methyl-d)-3-thioxo-2,3,5,5a,6,6a-hexahydrocyclopropa[3,4]pyrrolo[1,2-c]imidazol-1-yl)acetic Acid], the “Plasma (0.01 μM), activity in % of control” value is reported as 50.2 % of control and the “Plasma (0.1 μM), activity in % of control” value is given as 10.3 % of control.
On the same counts, the results for `Cn1c(CC(=O)NC2CCOCC2)c2n(c1=S)C[C@H](c1c(F)ccc(Br)c1F)C2` [Example 406, (S)-2-(6-(3-bromo-2,6-difluorophenyl)-2-methyl-3-thioxo-2,5,6,7-tetrahydro-3H-pyrrolo[1,2-c]imidazol-1-yl)-N-(tetrahydro-2H-pyran-4-yl)acetamide] are 28.9 % of control and 2.8 % of control.
For the compound `O=C(Cc1[nH]c(=S)n2c1[C@@H]1C[C@]1(c1cc(Br)ccc1F)C2)N[C@@H]1CCOC1` [Example 307, 2-((5aS,6aR)-5a-(5-bromo-2-fluorophenyl)-3-thioxo-2,3,5,5a,6,6a-hexahydrocyclopropa[3,4]pyrrolo[1,2-c]imidazol-1-yl)-N—((R)-tetrahydrofuran-3-yl)acetamide], the “Plasma (0.01 μM), activity in % of control” value is reported as 73.9 % of control and the “Plasma (0.1 μM), activity in % of control” value is reported as 33.0 % of control.
On the same counts, the results for `Fc1cc(F)c(F)c([C@H]2Cc3c(CCc4ccncc4)[nH]c(=S)n3C2)c1F` [Example 218, (R)-1-(2-(pyridin-4-yl)ethyl)-6-(2,3,5,6-tetrafluorophenyl)-2,5,6,7-tetrahydro-3H-pyrrolo[1,2-c]imidazole-3-thione] are 89.2 % of control and 69.1 % of control.
With `O=C(Cc1[nH]c(=S)n2c1[C@@H]1C[C@]1(c1cc(Br)ccc1F)C2)NCC(F)(F)F` [Example 152, 2-((5aS,6aR)-5a-(5-bromo-2-fluorophenyl)-3-thioxo-2,3,5,5a,6,6a-hexahydrocyclopropa[3,4]pyrrolo[1,2-c]imidazol-1-yl)-N-(2,2,2-trifluoroethyl)acetamide], the “Plasma (0.01 μM), activity in % of control” value was 72.1 % of control and the “Plasma (0.1 μM), activity in % of control” value is reported as 17.8 % of control.
For `Cn1c(CC(=O)N[C@@H]2CCOC2)c2n(c1=S)C[C@H](c1cc(F)cc(F)c1)C2` [Example 425, 2-((S)-6-(3,5-difluorophenyl)-2-methyl-3-thioxo-2,5,6,7-tetrahydro-3H-pyrrolo[1,2-c]imidazol-1-yl)-N—((R)-tetrahydrofuran-3-yl)acetamide], in that order: 78.6 % of control and 52.0 % of control.
`O=C(Cc1[nH]c(=S)n2c1[C@@H]1C[C@]1(c1cc(Br)ccc1F)C2)N1CCOCC1` [Example 157]: the “Plasma (0.01 μM), activity in % of control” value is recorded as 84.2 % of control and the “Plasma (0.1 μM), activity in % of control” value was 24.2 % of control.
Consider `O=C(Cc1[nH]c(=S)n2c1C[C@H](c1c(F)c(F)cc(F)c1F)C2)NC1CC1` [Example 78, (R)—N-cyclopropyl-2-(6-(2,3,5,6-tetrafluorophenyl)-3-thioxo-2,5,6,7-tetrahydro-3H-pyrrolo[1,2-c]imidazol-1-yl)acetamide], for which the “Plasma (0.1 μM), activity in % of control” value is 77.3 % of control. Besides, the “Plasma (1 μM), activity in % of control” value (inhibitor 1 μM) is recorded as 24.4 % of control.
In the case of `O=C(Cc1[nH]c(=S)n2c1[C@@H]1C[C@]1(c1cc(Cl)ccc1F)C2)Nc1cccnc1` [Example 171, 2-((5aS,6aR)-5a-(5-chloro-2-fluorophenyl)-3-thioxo-2,3,5,5a,6,6a-hexahydrocyclopropa[3,4]pyrrolo[1,2-c]imidazol-1-yl)-N-(pyridin-3-yl)acetamide], the “Plasma (0.01 μM), activity in % of control” value was 40.4 % of control and the “Plasma (0.1 μM), activity in % of control” value was 3.7 % of control.
As to `O=C(Cc1[nH]c(=S)n2c1C[C@@H](c1c(F)ccc(Br)c1F)C2)NCc1cccnc1` [Example 124, (S)-2-(6-(3-bromo-2,6-difluorophenyl)-3-thioxo-2,5,6,7-tetrahydro-3H-pyrrolo[1,2-c]imidazol-1-yl)-N-(pyridin-3-ylmethyl)acetamide], the “Plasma (0.01 μM), activity in % of control” value is given as 42.8 % of control and the “Plasma (0.1 μM), activity in % of control” value is 3.3 % of control.
For `Cn1c(CC(=O)N[C@@H]2CCOC2)c2n(c1=S)C[C@H](c1cc(Cl)ccc1F)C2` [Example 251, 2-((S)-6-(5-chloro-2-fluorophenyl)-2-methyl-3-thioxo-2,5,6,7-tetrahydro-3H-pyrrolo[1,2-c]imidazol-1-yl)-N—((R)-tetrahydrofuran-3-yl)acetamide], in that order: 80.0 % of control and 36.0 % of control.
On the same counts, the results for `CN1C[C@@H](NC(=O)Cc2c3n(c(=S)n2C)C[C@H](c2c(F)ccc(Br)c2F)C3)CC1=O` [Example 449, 2-((S)-6-(3-bromo-2,6-difluorophenyl)-2-methyl-3-thioxo-2,5,6,7-tetrahydro-3H-pyrrolo[1,2-c]imidazol-1-yl)-N—((S)-1-methyl-5-oxopyrrolidin-3-yl)acetamide] are 27.8 % of control and 2.3 % of control.
Consider `Cl.Cn1c(CC(=O)N2CCNCC2)c2n(c1=S)C[C@@]1(c3cc(Br)ccc3F)C[C@@H]21` [Example 321, 2-((5aS,6aR)-5a-(5-bromo-2-fluorophenyl)-2-methyl-3-thioxo-2,3,5,5a,6,6a-hexahydrocyclopropa[3,4]pyrrolo[1,2-c]imidazol-1-yl)-1-(piperazin-1-yl)ethan-1-one Hydrochloride], for which the “Plasma (0.01 μM), activity in % of control” value is recorded as 89.7 % of control and the “Plasma (0.1 μM), activity in % of control” value is 13.3 % of control.
On the same counts, the results for `F.Fc1ccc(Cl)cc1[C@]12C[C@H]1c1c(CCNCc3ccccc3)[nH]c(=S)n1C2` [Example 189, (5aS,6aR)-1-(2-(benzylamino)ethyl)-5a-(5-chloro-2-fluorophenyl)-5,5a,6,6a-tetrahydrocyclopropa[3,4]pyrrolo[1,2-c]imidazole-3(2H)-thione hydrofluoride] are 87.4 % of control and 23.2 % of control.
Regarding `Cn1c(CC(=O)NC2CCCC2)c2n(c1=S)C[C@@]1(c3cc(Br)ccc3F)C[C@@H]21` [Example 272, 2-((5aS,6aR)-5a-(5-bromo-2-fluorophenyl)-2-methyl-3-thioxo-2,3,5,5a,6,6a-hexahydrocyclopropa[3,4]pyrrolo[1,2-c]imidazol-1-yl)-N-cyclopentylacetamide], the “Plasma (0.01 μM), activity in % of control” value was 73.5 % of control and the “Plasma (0.1 μM), activity in % of control” value was 22.7 % of control.
